Reference: patent US10188629B2, “Prodrug of green tea epigallocatechin-3-gallate (pro-EGCG) for use in the treatment of endometriosis” (The Hong Kong Polytechnic University, priority 2012, dated 2019)

How the values were obtained:
[1] = tested on: endometriotic lesions (experimental endometriosis); assay: Growth of luminescent endometriotic lesions monitored weekly by IVIS bioluminescence imaging; type: in vivo, mice; conditions: for lesion bioluminescence relative to baseline levels / lesion bioluminescence intensity compared with saline group: i.p. once per day, 4 weeks, EGCG, pro-EGCG 50 mg/kg; for lesion bioluminescence intensity compared with saline group: vitamin E 20 mg/kg
Source text: Based on our previous study, an immune-compromised mouse model of experimental endometriosis was created by subcutaneous transplantation of human or mouse tissues to assess the anti-angiogenic effects and mechanisms of green tea catechin (Xu H, et al. Hum Reprod 2009; 24:608-18; Xu H, et al. Fertil Steril 2011; 96:1021-8).
In this study, endometrial tissues from eight-week-old female CMV-Luc mice (n=15) were acquired for transplantation into nonluminescent NOD-SCID mice (n=32). The mouse endometrium was obtained during the proliferating estrous stage, and biopsies 2 mm in diameter were obtained with a sterile dermal biopsy punch (Miltex, NY). The biopsies were immediately washed in prewarmed, phenol-red-free DMEM/F-12 medium (Sigma) to remove residual blood and mucus, and the samples were maintained in serum-free DMEM/F-12 medium before transplantation (Bruner-Tran K L, et al. J Clin Endocrinol Metab 2009; 94:2489-94). Cultured endometrial biopsies were randomly allocated for transplantation.
Five mouse endometrial biopsies per treatment group were implanted into a single subcutaneous pocket created is the abdominal wall of the mice along the ventral midline immediately below the umbilicus. All of the surgical procedures were performed under general anesthesia with isoflurane (Baxter, IL), and the mice were monitored until they fully recovered.
Development and angiogenesis of the experimental endometriosis were monitored using various in vivo imaging systems. During the intervention, growth of the endometriotic lesions (n=8 per group) was monitored each week by measuring the bioluminescence of the subcutaneous luciferase-positive implants using a non-invasive IVIS 200 live animal imaging system (Xenogen) as previously described (Song C, et al. Hum Gene Ther, 2011; 22:439-49). A total of 150 mg/kg of luciferin was injected intraperitoneally […] 10 mins prior to imaging. An image from each animal was captured at bin size 4 in triplicate, and the bioluminescence signal intensities were averaged for comparison.

cancer cells = conditions: cited from earlier work
[2] = tested on: human prostate, breast, leukemic, and simian virus 40-transformed cells; conditions: cited from earlier work
[3] = General tolerability and body weight during the intervention; conditions: i.p. once per day, 4 weeks; EGCG, pro-EGCG 50 mg/kg, vitamin E 20 mg/kg
Experimental: Immediately after the transplantation, the mice were randomly assigned to receive either vehicle (n=8; sham control), vitamin E (n=8; anti-oxidant control, 20 mg/kg), EGCG (n=8; anti-angiogenesis control, 50 mg/kg, ≈1.5 mg/30 g) or pro-EGCG (n=8; 50 mg/kg).
Dulbecco's phosphate-buffered saline (PBS, Sigma) was used as solvent to dissolve the drugs. These doses were selected because their significant an angiogenic and anti-oxidative effects have been reported in mice (Sang S, et al. Chem Res Toxicol 2005; 18:1762-9; Villayandre B M, et al. Brain Research 2004; 1028, 148-55). The treatments were administered once per day via intraperitoneal injections for a consecutive 4-week period.

[4] = cited from earlier work

Structure (SMILES) | lesion bioluminescence intensity compared with EGCG group ([1]; 50 mg/kg i.p. once per day, 2nd, 3rd and 4th weeks) | lesion bioluminescence relative to baseline levels [1] | lesion bioluminescence intensity compared with saline group [1] | cell death induction (cancer cells) | proteasome inhibition (cancer cells) | potency in inhibition of proliferation and transforming activity and induction of apoptosis, compared with EGCG [2] | signs of stress, intolerance or toxic responses to administration [3] | bioavailability [4] | stability under physiological conditions ([4]; physiological conditions)
CC(=O)Oc1cc(OC(C)=O)c2c(c1)O[C@H](c1cc(OC(C)=O)c(OC(C)=O)c(OC(C)=O)c1)[C@H](OC(=O)c1cc(OC(C)=O)c(OC(C)=O)c(OC(C)=O)c1)C2 [pro-EGCG, (−)-EGCG octaacetate] | significantly lower than that of both the saline group and the EGCG group at the 2nd, 3rd and 4th weeks | decreased further below the baseline levels | significantly lower than that of both the saline group and the EGCG group at the 2nd, 3rd and 4th weeks | cell death induction | exhibited proteasome inhibition | much higher potency than EGCG | – | – | –
O=C(O[C@@H]1Cc2c(O)cc(O)cc2O[C@@H]1c1cc(O)c(O)c(O)c1)c1cc(O)c(O)c(O)c1 [EGCG, (−)-epigallocatechin-3-gallate] | – | maintained around the baseline levels | significantly lower than that of the saline group at the 2nd, 3rd and 4th weeks | – | – | – | No signs of stress, intolerance to anesthesia, surgery or implantation or any toxic responses | poor bioavailablity | notably unstable
